Laboratory results as given in patent publication US20260191825A1, “CONTRACEPTIVE COMPOUNDS AND DOSING FOR THE SAME” (YourChoice Therapeutics, Inc., priority 2024, published 2026).
Entries after “also recorded” stand apart in the source; their conditions may differ.

Legend:
[1] = Phase 1b MAD study (Part 1), 28-day dosing, PK; type: in vivo, human; details: for Cmax / AUC0-24 / AUC(0-t) / AUC(0-inf) / half-life: mean; for Tmax: median;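 for all read-outs here: PK profiles sampled across 24 h on Day 1 and Day 28 while participants stayed overnight in the clinical research unit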
Source text: • Part 1: Participants will have overnight stays in the clinical research unit in order to monitor their wellbeing and obtain 24-hour PK profiles on Day 1 and Day 28.

healthy men = test: Phase 1b MAD study (Part 1), 28-day dosing, safety and tolerability; type: in vivo, human
Description: Cohort 4 (receiving 180 mg) is currently being studied.

[2] = In vitro stability in microsomes (rabbit); type: in vitro ADME; details: rabbits
Description: (§1) Respective half-lives (T1/2) were 9.5 hours (human), 23.1 hours (monkeys), >23.1 hours (mice), >23.1 hours (rats), 19.6 hours (rabbits), and >23.1 hours (dogs).

rats = test: Rat repeat dose non-GLP efficacy study (sperm counts, MABEL); type: in vivo
Description: Rat testicular toxicity reversibility characteristics and findings after repeat dosing are discussed in Section 3.1.4.
Rat 35-day repeat dose non-GLP study with a MABEL of 0.75 mg/kg/day.

[3] = Phase 1a single ascending oral dose study, PK; details: male, human, in vivo, fasted, geometric mean; for AUC(0-t): po
Description: Cohort 1 first received 10 mg, and after a 5-week washout period received 30 mg.

[4] = NHP non-GLP 14-day repeat-dose study, PK at the NOAEL; details: male, cynomolgus monkey, in vivo, 10 mg/kg, 10 mg/kg (NOAEL); for AUC(0-t): read-out: AUC0-24
[5] = Dog 28-day repeat-dose GLP toxicity study; type: in vivo; details: male, Beagle, in vivo; for NOAEL at 28 days: dog
male Beagle dogs = test: Dog 28-day repeat-dose GLP toxicity study; type: in vivo
mice = test: Mating trials with mice; type: in vivo, mouse; details: 10 mg/kg/day for 4 weeks
rat micronucleus = test: In vivo rat micronucleus study; details: highest doses tested
male Sprague Dawley rats = test: Rat 28-day repeat-dose GLP toxicity study; parameters: NOAEL increase over the minimum efficacious dose in rats: dose or concentration left out as unconfirmed
rat = test: Rat repeat daily dosing at non-tolerated doses; type: in vivo
Description: These doses convert to respective Human Equivalent Doses (HEDs) of ≥1,612.8 mg and ≥444.8 mg fixed dose based on 80 kg body weight. […] Safety laboratory analyses include serum chemistry, hematology, coagulation, and lipid panel.

[6] = In vitro stability in microsomes (rat); type: in vitro ADME; details: rats
Description: as §1

CYP1A2 = CYP1A2 (Homo sapiens, UniProt P05177); test: In vitro CYP inhibition (direct and time-dependent), CYP1A2; type: in vitro ADME
Source text: However, the likelihood of drug interactions is low since healthy participants who meet eligibility criteria will be enrolled in this Phase 1b/2a clinical trial. An allowance for select concomitant medications may be considered for select participants at the discretion of the investigator and/or sponsor if drug profiles are not anticipated to interact with Compound A. Such medications may include, but will not be limited to paracetamol or ibuprofen as assessed by both the PI and the Sponsor. […] Additional precautions to avoid grapefruit, pomegranates, star fruit, or Seville oranges for 7 days prior to admission, and juices and products containing these fruits for the duration of the study will be taken.

[7] = male, human, in vivo, oral, 30 mg, […] mg once daily, Day 28
[8] = male, human, in vivo, oral, 15 mg once daily, Day 28
[9] = 15, 30 or 90 mg once daily for 28 days
[10] = rat, 3, 10 or 30 mg/kg/day for 28 days

CYP1A2, sequence (P05177 whole entry): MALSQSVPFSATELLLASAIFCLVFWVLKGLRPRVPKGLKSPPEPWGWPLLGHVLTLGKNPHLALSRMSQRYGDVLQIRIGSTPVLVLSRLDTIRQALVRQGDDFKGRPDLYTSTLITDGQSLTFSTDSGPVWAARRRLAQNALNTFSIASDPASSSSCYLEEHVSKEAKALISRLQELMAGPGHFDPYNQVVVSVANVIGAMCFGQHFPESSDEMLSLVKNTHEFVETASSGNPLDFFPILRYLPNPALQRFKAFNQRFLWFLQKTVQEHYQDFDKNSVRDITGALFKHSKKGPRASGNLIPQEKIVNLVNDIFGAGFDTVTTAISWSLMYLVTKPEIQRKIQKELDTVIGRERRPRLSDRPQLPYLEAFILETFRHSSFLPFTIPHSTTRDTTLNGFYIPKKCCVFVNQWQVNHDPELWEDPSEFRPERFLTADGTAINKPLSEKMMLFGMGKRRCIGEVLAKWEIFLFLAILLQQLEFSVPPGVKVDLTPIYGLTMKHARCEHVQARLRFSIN

Cc1ccc(C2=CC(C)(C)Oc3ccc(-c4ccc(-c5ccc(C(=O)O)cc5)[nH]4)cc32)cc1 [Compound A]
Cmax ([1]; 15 mg once daily, Day 1): 247.8 ng/mL | AUC0-24 ([1]; 15 mg once daily, Day 28): 6,414 h*ng/mL | AUC0-24 ([1]; 90 mg once daily, Day 1): 14,091/ h*ng/mL | Cmax ([1]; 90 mg once daily, Day 1): 794.3 ng⁻¹ mL⁻¹ | AUC0-24 ([1]; 90 mg once daily, Day 28): 22,710/ h*ng/mL | Cmax ([1]; 90 mg once daily, Day 28): 1,165/ ng/mL | AUC0-24 ([1]; […] mg once daily, Day 1): 10,060/ h*ng/mL | Cmax ([1]; […] mg once daily, Day 1): 544.5 ng⁻¹ mL⁻¹ | AUC0-24 ([1]; […] mg once daily, Day 28): 9,585/ h*ng/mL | Cmax ([1]; […] mg once daily, Day 28): 551.5 ng⁻¹ mL⁻¹ | AUC(0-t) ([1]; male, human, in vivo, oral, 15 mg, 15 mg once daily, Day 1, read-out: AUC0-24): 4850 ng·h/mL | AUC(0-t) ([1]; male, human, in vivo, oral, 15 mg, 15 mg once daily, Day 1, read-out: AUC0-last): 4850 ng·h/mL | Cmax ([1]; male, human, in vivo, oral, 15 mg, 15 mg once daily, Day 1, read-out: Cmax): 275 ng/mL | AUC(0-t) ([1]; male, human, in vivo, oral, 15 mg, 15 mg once daily, Day 28, read-out: AUC0-24): 6420 ng·h/mL | AUC(0-t) ([1]; male, human, in vivo, oral, 15 mg, 15 mg once daily, Day 28, read-out: AUC0-last): 24700 ng·h/mL | Cmax ([1]; male, human, in vivo, oral, 15 mg, 15 mg once daily, Day 28, read-out: Cmax): 348 ng/mL | AUC(0-t) ([1]; male, human, in vivo, oral, 30 mg, 30 mg once daily, Day 1, read-out: AUC0-24): 10100 ng·h/mL | AUC(0-t) ([1]; male, human, in vivo, oral, 30 mg, 30 mg once daily, Day 1, read-out: AUC0-last): 10100 ng·h/mL | Cmax ([1]; male, human, in vivo, oral, 30 mg, 30 mg once daily, Day 1, read-out: Cmax): 544 ng/mL | AUC(0-t) ([1]; male, human, in vivo, oral, 30 mg, 30 mg once daily, Day 28, read-out: AUC0-24): 9580 ng·h/mL | AUC(0-t) ([1]; male, human, in vivo, oral, 30 mg, 30 mg once daily, Day 28, read-out: AUC0-last): 36100 ng·h/mL | Cmax ([1]; male, human, in vivo, oral, 30 mg, 30 mg once daily, Day 28, read-out: Cmax): 552 ng/mL | Tmax ([1]; male, human, in vivo, oral, 30 mg, 30 mg once daily, Day 28): 6 h | AUC(0-inf) [1, 7]: 36400 ng·h/mL | half-life [1, 7]: 28.9 h | AUC(0-t) ([1]; male, human, in vivo, oral, 90 mg, 90 mg once daily, Day 1, read-out: AUC0-24): 14100 ng·h/mL | AUC(0-t) ([1]; male, human, in vivo, oral, 90 mg, 90 mg once daily, Day 1, read-out: AUC0-last): 14100 ng·h/mL | Cmax ([1]; male, human, in vivo, oral, 90 mg, 90 mg once daily, Day 1, read-out: Cmax): 794 ng/mL | Tmax ([1]; male, human, in vivo, oral, 90 mg, 90 mg once daily, Day 1): 6 h | AUC(0-t) ([1]; male, human, in vivo, oral, 90 mg, 90 mg once daily, Day 28, read-out: AUC0-24): 22700 ng·h/mL | Cmax ([1]; male, human, in vivo, oral, 90 mg, 90 mg once daily, Day 28, read-out: Cmax): 1160 ng/mL | AUC(0-inf) [1, 8]: 27500 ng·h/mL | half-life [1, 8]: 35.8 h | AEs classified as possibly related to study treatment (healthy men; [9]): moderate ventricular triplet, mild skin rash, mild sunburn, mild increased urinary frequency and mild photosensitivity | AEs classified as possibly related to study treatment (number) (healthy men; [9]): Five | Serious adverse events (SAEs) (healthy men; 15, 30 or 90 mg once daily for 28 days, fasting, to date): no serious adverse events | Safety and tolerability (healthy men; 28-day oral administration, up to 90 mg, fasted state): safe and well tolerated | half-life ([2]; rabbit, read-out: Half-life (T1/2) in microsomes (converted)): 19.6 h | Compound remaining intact ([2]; 90 minutes): 99% | HED (based on BSA) of MABEL (rats; rat): 0.1 mg/kg | HED for 60 kg BW of MABEL (rats; rat): 7.2 mg | HED for 80 kg BW of MABEL (rats; rat): 9.6 mg | MABEL (rats; rat, 35-day repeat dose non-GLP): 0.75 mg/kg/day | Lowest dose with decreases in sperm counts / minimum efficacious dose in rats (rats; rat, repeat dose for 36 days): 0.75 mg/kg/day | Recovery from disruption of spermatogenesis (rats; rats, 28-day dosing at 0.75 mg/kg/day and 1 mg/kg/day): recover from disruption of spermatogenesis | AUC(0-t) ([3]; 10 mg, single oral dose 10 mg, read-out: AUC0-24): 2380 ng·h/mL | AUC(0-t) ([3]; 10 mg, single oral dose 10 mg, read-out: AUC0-last): 8180 ng·h/mL | AUC(0-t) ([3]; 30 mg, single oral dose 30 mg, read-out: AUC0-24): 3520 ng·h/mL | AUC(0-t) ([3]; 30 mg, single oral dose 30 mg, read-out: AUC0-last): 12400 ng·h/mL | AUC(0-t) ([3]; 90 mg, single oral dose 90 mg, read-out: AUC0-24): 8430 ng·h/mL | AUC(0-t) ([3]; 90 mg, single oral dose 90 mg, read-out: AUC0-last): 26300 ng·h/mL | AUC(0-t) ([3]; 180 mg, single oral dose 180 mg, read-out: AUC0-24): 27300 ng·h/mL | AUC(0-t) ([3]; 180 mg, single oral dose 180 mg, read-out: AUC0-last): 73400 ng·h/mL | AUC(0-inf) ([3]; single oral dose 10 mg): 9560 ng·h/mL | Cmax ([3]; single oral dose 10 mg): 131 ng/mL | half-life ([3]; single oral dose 10 mg): 53.5 h | AUC(0-inf) ([3]; single oral dose 30 mg): 12900 ng·h/mL | Cmax ([3]; single oral dose 30 mg): 200 ng/mL | half-life ([3]; single oral dose 30 mg): 61.7 h | AUC(0-inf) ([3]; single oral dose 90 mg): 26800 ng·h/mL | Cmax ([3]; single oral dose 90 mg): 472 ng/mL | half-life ([3]; single oral dose 90 mg): 71.3 h | AUC(0-inf) ([3]; single oral dose 180 mg): 75400 ng·h/mL | Cmax ([3]; single oral dose 180 mg): 1750 ng/mL | half-life ([3]; single oral dose 180 mg): 76.3 h | half-life ([4]; Day 1, mean ± SD): 7.9 ± 1.7 h | AUC(0-t) ([4]; Day 1, mean): 147000 ng·h/mL | Cmax ([4]; Day 1, n = 3, mean): 13000 ng/mL | Cmax ([4]; Day 14, mean): 6530 ng/mL | half-life ([4]; Day 14, mean ± SD): 6.2 ± 0.4 h | AUC(0-t) ([4]; Day 14, mean): 69700 ng·h/mL | Human equivalent dose of NOAEL at 28 days ([5]; dog 28-day GLP, NOAEL 5 mg/kg/day, read-out: HED of NOAEL): 2.8 mg/kg/day | NOAEL at 28 days ([5]; 28-day repeat dose GLP, 2.5-25 mg/kg/day): 5 mg/kg/day | NOAEL at 28 days ([5]; 28-day repeat-dose): 5 mg/kg | HED (based on BSA) of MABEL (male Beagle dogs; dog): 1.4 mg/kg | HED for 60 kg BW of MABEL (male Beagle dogs; dog): 84 mg | HED for 80 kg BW of MABEL (male Beagle dogs; dog): 112 mg | HED of not tolerated dose, fixed dose based on 80 kg body weight (male Beagle dogs; dog): ≥ 444.8 mg | Not tolerated repeat daily dose (death and morbidity) (male Beagle dogs; dog): ≥ 10 mg/kg/day | Doses with intended testicular toxicity confirmed by histopathology (male Beagle dogs; dog, 28-day dosing): ≥ 2.5 mg/kg/day | MABEL (male Beagle dogs; dog, 28-day repeat dose GLP): 2.5 mg/kg/day | Reversibility of spermatogenesis (male Beagle dogs; dog, 62-day recovery period): reversible | Recovery of spermatogenesis (male Beagle dogs; dog, after 28-day dosing): 1 spermatogenic cycle | Cross-section of canine testicle after dosing (FIG. 1B) (male Beagle dogs; dog, after dosing): no developing and mature sperm | Cross-section of canine testicle after recovery period of no dosing (FIG. 1C) (male Beagle dogs; dog, after recovery period): return of developing sperm | Cause of death or moribundity (male Beagle dogs; dogs, 10 or 25 mg/kg/day): renal toxicity | NOAEL increase over the minimum efficacious dose in rats (male Beagle dogs; male, Beagle, dog, in vivo, 28 days): 22 fold | HED for 60 kg BW (male Beagle dogs; of dog repeat-dose NOAEL): 168 mg | HED for 80 kg BW (male Beagle dogs; of dog repeat-dose NOAEL): 224 mg | Complete recovery of fertility after cessation of dosing (mice): 6-10 weeks | Infertility (based on the number of viable embryos) (mice): 99% | Genotoxicity: rat micronucleus (rat micronucleus): not genotoxic; also recorded: no genotoxic potential; also recorded: Clean | NOAEL increase over the minimum efficacious dose in rats (male Sprague Dawley rats; rat NOAEL […] mg/kg/day, based on exposure): 40 fold | Prostate weight (male Sprague Dawley rats; [10]): unchanged | Recovery from testicular effects (male Sprague Dawley rats; [10]): very slow | Testosterone levels (male Sprague Dawley rats; rat, 3, 10 or 30 mg/kg/day for 28 days, inferred from prostate weight): did not change testosterone levels | HED of not tolerated dose, fixed dose based on 80 kg body weight (rat): ≥ 1,612.8 mg | Not tolerated repeat daily dose (death and morbidity) (rat): ≥ 125 mg/kg/day | Systems affected at non-tolerated doses (rat): hematopoietic, hepatic, adrenal and lymphoid systems were affected | half-life ([6]; rat, read-out: Half-life (T1/2) in microsomes): > 23.1 h | Compound remaining intact ([6]; 90 minutes): 113% | IC50 (CYP1A2; CYP1A2): 30.1 µM | Time-dependent inhibition (TDI) (CYP1A2; CYP1A2, 0.3 to 100 μM): no TDI potential
